Results: patent publication US20150216867A1, “COMPOUNDS FOR USE IN GASTRIC COMPLICATION” (NOVARTIS AG, priority 2012, published 2015)
Structures can show the parent of a compound that is named as a salt.

Tests used:
[1] = tested on: cultured primary DRG cells; test: Dorsal root ganglia stimulation with acid: low pH (6.1) induced CGRP release; type: cell-based; settings: read-out: IC50, block of increased CGRP release
From the text: c) Dorsal Root Ganglia Stimulation with Acid—Blockade of the Effect with GPR4 Antagonist Low pH (6.1) induces a significant Calcitonin Gene-Related Peptide (CGPR) release in cultured primary DRG cells.

human GPR4 [2] = target: T1, human GPR4 (Homo sapiens, UniProt P46093); test: Human GPR4 binding assay ([3H]4(example 39) radioligand, membranes of 300.19 cells); design: c-myc (N); expressed in transfected cells
Experimental: (§1) Cells were grown in T175 flasks to a density of about 1×10^6 cells/mL in growth medium. The cells were harvested by centrifugation (3000 rpm for 30 minutes at 4° C.) and the pellet resuspended in ice cold buffer A (20 mM HEPES pH 7.8, 10 mM EDTA, 100 mM NaCl, 1 tab/40 mL protease inhibitor complete). […] The homogenate was centrifuged at 18000 rpm for 50 min at 4° C. and the membrane protein pellet resuspended in cold buffer A using the Polytron (2×20 seconds). The protein concentration is determined using the Bio Rad Protein Assay and human IgG as standard. The volume of the membrane protein suspension is adjusted to a final concentration of about 2 mg protein/mL. The suspension is then once again homogenized (Polytron) on ice at 25000 rpm for 20 seconds before being aliquoted and stored at −80° C.
(§2) Radio Ligand Binding Assay: Serial dilutions of compounds (stock in 10 mM DMSO) are prepared by first diluting the compounds in DMSO followed by a 1:50 dilution into assay buffer (10 mM HEPES, pH 8.0, 100 mM NaCl, 5 mM MgCl2, 1 mM CaCl2, 0.5% fatty acid-free BSA, 0.05% Tween-20). […] The desired amount of membranes (20 μg/well) is diluted with assay buffer. […] 100 μL of the membrane-suspension is added and the plate stirred for 60 minutes. […] Finally the plate is counted for 2 min/well in a TopCount NXT instrument (Packard Instruments). The data are analyzed using the GraphPad Prism™ software.

human GPR4 [3] = target: T1, human GPR4; test: Human GPR4 binding assay with additional human serum albumin (4% HSA); design: c-myc (N); expressed in transfected cells; settings: binding assay with additional 4% human serum albumin
Experimental: as §1
as §2, with “software. […]” for “software.”

human GPR4 [4] = target: T1, human GPR4; test: Cell-based assay for human GPR4 activity: pH-induced cAMP formation (HTRF) in HeLa cells; design: expressed in transfected cells; settings: HeLa cells stably expressing human GPR4, pH-induced cAMP formation
Experimental: HeLa cells stably expressing human GPR4 were established by transfecting the cells with a construct containing the human GPR4 coding sequence. The cells were grown in Dulbecco's Modified Eagle Medium (DMEM)/HAM's tissue culture medium F12 (HAM's F12) supplemented with 10% fetal calf serum (FCS), 100 u/ml penicillin, 100 μg/ml streptomycin and 400 μg/ml G418 and 10 mM Hepes pH 8.0. pH-induced formation of cAMP was determined using the homogeneous time resolved fluorescence (HTRF) technology as provided by CisBio Inc. The cells were seeded in 384-well plates and cultured for 24 hours at 37° C., 5% CO2 before performing the assay. Medium was removed and 10 μl buffer A (Hepes buffered saline (HBS), 10 mM Hepes, pH 8, 2 mM 3-Isobutyl-1-methylxanthin (IBMX)) was added. For compound testing, buffer A with 2× concentrated compounds was used. Cells were incubated for 15 min at room temperature. 10 μl buffer B (HBS, 30 mM Hepes, specific pH) was added to reach the appropriate final pH for stimulation (see below) and incubation was continued for 15 min at room temperature.
HBS: 130 mM NaCl, 0.9 mM NaH2PO4, 5.4 mM KCl, 0.8 mM MgSO4, CaCl2 1.8 mM, 25 mM glucose, 10-30 mM Hepes. Adjustment of HBS buffers:
Compounds were diluted from fresh stock solutions at 10 mM in DMSO to 2 mM and then used for serial dilutions in DMSO.

[5] = tested on: neutrophil recruitment into the BAL fluid; test: Neutrophil infiltration into mouse BAL fluid, cigarette smoke exposure model; type: in vivo; settings: WT mice, cigarette smoke 2 weeks, 90 mg/kg po
Experimental: e) Effect of GPR4 Antagonist on Neurophil Infiltration into Mouse BAL Fluid
The role of GPR4 on neutrophil recruitment was determined in the cigarette smoke exposure model. GPR4 WT (wild type) and KO (knockout) mice, and WT treated with the compounds of example No 41 and example No 40 (90 mg/kg po) were exposed to five cigarettes for 2 weeks. The mice were sacrificed 24 hours following last smoke exposure and bronchoalveolar lavage (BAL) was performed.
The following table summarizes the results obtained by the GPR4-mediated inhibition of neutrophil recruitment into the BAL fluid: […]

T1 sequence (P46093 whole entry): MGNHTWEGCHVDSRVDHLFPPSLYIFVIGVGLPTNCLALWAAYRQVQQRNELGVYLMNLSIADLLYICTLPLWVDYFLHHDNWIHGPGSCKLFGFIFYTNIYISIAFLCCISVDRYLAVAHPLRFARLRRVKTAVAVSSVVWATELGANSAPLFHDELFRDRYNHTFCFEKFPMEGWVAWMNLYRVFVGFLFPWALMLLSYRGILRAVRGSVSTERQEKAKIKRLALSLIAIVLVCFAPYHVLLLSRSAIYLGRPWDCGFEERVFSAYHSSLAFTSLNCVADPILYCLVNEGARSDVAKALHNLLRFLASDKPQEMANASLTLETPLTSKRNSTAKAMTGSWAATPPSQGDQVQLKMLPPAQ

Compound | IC50 [1] | recruitment of neutrophils [5] | other results
CCc1nn2c(C)cc(C)nc2c1Cc1ccc(/C=C/CN2CCN(C[C@@H](O)CO)CC2)cc1 [Example 17, (R)-3-(4-{(E)-3-[4-(2-Ethyl-5,7-dimethyl-pyrazolo[1,5-a]pyrimidin-3-ylmethyl)-phenyl]-allyl}-piperazin-1-yl)-propane-1,2-diol dihydrochloride] | 120 nM | – | –
CCc1nn2c(C)cc(C)nc2c1Cc1ccc(/C=C/C(=O)N2CCNCC2)cc1 [Example 18, (E)-3-[4-(2-Ethyl-5,7-dimethyl-pyrazolo[1,5-a]pyrimidin-3-ylmethyl)-phenyl]-1-piperazin-1-yl-propenone hydrochloride] | – | – | IC50 (human GPR4 [2]): 81 nM; IC50 (human GPR4 [3]): 67 nM; IC50 (human GPR4 [4]): 43 nM
CCc1nn2c(C)cc(C)nc2c1Cc1ccc(-c2nnc(C3CCNCC3)o2)cc1 [Example 35, 2-Ethyl-5,7-dimethyl-3-[4-(5-piperidin-4-yl-[1,3,4]oxadiazol-2-yl)-benzyl]-pyrazolo[1,5-a]pyrimidine] | 530 nM | – | –
CCc1nc2c(C)cc(C)nc2n1Cc1ccc(/C=C/CN2CCN(C(C)C)CC2)cc1 [Example 40, 2-Ethyl-3-{4-[(E)-3-(4-isopropyl-piperazin-1-yl)-propenyl]-benzyl}-5,7-dimethyl-3H-imidazo[4,5-b]pyridine] | – | significantly reduced | –
CCc1nc2c(C)cc(C)nc2n1Cc1ccc(/C=C/CN2CCC(N3CCCCC3)CC2)cc1 [Example 41, 1′-{(E)-3-[4-(2-Ethyl-5,7-dimethyl-imidazo[4,5-b]pyridin-3-ylmethyl)-phenyl]-allyl}-[1,4′]bipiperidinyl dihydrochloride] | – | significantly reduced | –
